Reference: US8293744B2, “Heterocyclic fused cinnoline M1 receptor positive allosteric modulators” (Merck Sharp & Dohme Corp., priority 2009, dated 2012)

Each compound was assayed against T1, acetylcholine muscarinic M1 receptor (Homo sapiens, UniProt P11229) (assay: muscarinic FLIPR assay: potentiation of acetylcholine (EC20)-stimulated intracellular Ca2+ in CHOnfat/hM1 cells). Conditions: 4 min preincubation, then EC20 acetylcholine (3 nM final), read-out: IP Value (inflection point).
T1 construct: expressed in transfected cells; host or cells: CHOnfat (CHO cells; also called CHOK1/hM1)
T1 sequence (P11229 1-460): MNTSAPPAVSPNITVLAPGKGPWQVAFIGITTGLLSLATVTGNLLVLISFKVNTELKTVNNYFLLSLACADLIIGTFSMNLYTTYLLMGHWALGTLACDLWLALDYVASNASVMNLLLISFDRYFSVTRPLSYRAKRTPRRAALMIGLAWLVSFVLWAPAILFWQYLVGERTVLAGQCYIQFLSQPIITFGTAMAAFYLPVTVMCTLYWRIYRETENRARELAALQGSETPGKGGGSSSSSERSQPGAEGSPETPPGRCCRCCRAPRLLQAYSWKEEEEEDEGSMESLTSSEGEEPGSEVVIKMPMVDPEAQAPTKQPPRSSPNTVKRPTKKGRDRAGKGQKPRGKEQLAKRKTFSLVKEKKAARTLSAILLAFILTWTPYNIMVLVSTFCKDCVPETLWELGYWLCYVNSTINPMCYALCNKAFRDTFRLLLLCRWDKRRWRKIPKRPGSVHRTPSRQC
Type: cell-based
Method: The assay studies the effect of one or several concentrations of test compounds on basal or acetylcholine-stimulated Ca^2+ levels using FLIPR.
Compounds are prepared and subjected to a preincubation period of 4 min. Thereafter, a single EC20 concentration of acetylcholine is added to each well (3 nM final). The intracellular Ca^2+ level of each sample is measured and compared to an acetylcholine control to determine any modulatory activity
Cells: CHOnfat/hM1, hM2, hM3 or hM4 cells are plated 24 hr before the assay at a density of 18,000 cells/well (100 μL) in a 384 well plate. CHOnfat/hM1 and CHOnfat/hM3 Growth Medium: 90% DMEM (Hi Glucose); 10% HI FBS; 2 mM L-glutamine; 0.1 mM NEAA; Pen-Strep; and 1 mg/ml Geneticin, are added. For M2Gqi5CHOnfat and M4Gqi5CHOnfat cells, an additional 600 ug/ml hygromycin is added.
Equipment: 384 well plate, 120 μL addition plate; 96-well Whatman 2 ml Uniplate Incubator, 37° C., 5% CO2; Skatron EMBLA-384 Plate Washer; Multimek Pipetting System; Genesis Freedom 200 System; Mosquito System; Temo Nanolitre Pipetting System; and FLIPR^384 Fluorometric Imaging Plate Reader System are used.
Buffers. Assay Buffer: Hanks Balanced Salt Solution, with 20 mM Hepes, 2.5 mM Probenecid (Sigma P-8761) first dissolved in 1 N NaOH, 1% Bovine Serum Albumin (Sigma A-9647). Dye Loading Buffer: Assay Buffer plus 1% Fetal Bovine Serum and Fluo-4AM/Pluronic Acid Mixture. 2 mM Fluo-4AM ester stock in DMSO (Molecular Probes F-14202) Concentration of 2 μM in buffer for a final concentration of 1 μM in Assay. 20% Pluronic Acid Solution stock, with concentration of 0.04% in Buffer, 0.02% in Assay.
65 μL of 2 mM Fluo-4AM are mixed with 130 μL of 20% Pluronic Acid. The resulting solution and 650 μL FBS is added to the assay buffer for a total volume of 65 mL. Positive Controls; 4-Br-A23187: 10 mM in DMSO; final concentration 10 μM. Acetylcholine: 10 mM in water, working stock at both 20 μM and 30 μM in assay buffer, final concentration of 10 μM. This is used to check the maximum stimulation of the CHOK1/hM1 cells. 20 μM (2×) acetylcholine is added in the preincubation part of the assay, and the 30 μM (3×) stock is added in the second part. (EC20)Acetylcholine; 10 mM in water, working stock of 9 nM (3×), and final concentration in assay is 3 nM. This is used after the preincubation with test compounds. Addition of the EC20 Acetylcholine to each well with a test compound will ascertain any modulator activity. 24 wells contain 3 nM Acetylcholine alone as a control.
Screening Plate: Compounds are titrated in 96-well plates (columns 2-11), 100% DMSO, started at a concentration of 15 mM (150× stock concentration), and 3-fold serial dilutions using Genesis Freedom 200 System. Four 96-well plates are combined into a 384-well plate using Mosquito Nanolitre Pipetting System by transferring 1 μl of serial diluted compounds to each well, and 1 mM acetylcholine (100× stock concentration) were added as a control. Using Temo, 49 μl assay buffer is added to each well of the 384-well plate right before assay.
In a 96-well Whatman 2 ml Uniplate, 9 nM Acetylcholine (3×) is pipetted into wells corresponding to the screening compounds, and into control wells. The 30 μM acetylcholine control (3×) is added into control wells, and the 3× agonist plate is transferred into a 384 well plate.
Cells are washed three times with 100 μL of buffer, leaving 30 μL of buffer in each well. Using Multimek, 30 μL of Dye Loading Buffer is added into each well and incubated at 37° C., 5% CO2 for up to one hr.
After 60 min, the cells are washed three times with 100 μL of buffer, leaving 30 μL of buffer in each well. The cell plate, screening plate, and agonist addition plates are placed on the platform in the FLIPR and the door closed. A signal test to check background fluorescence and basal fluorescence signal is performed. Laser intensity is adjusted if necessary. […]
With `O=c1c2nn(Cc3ccc(-n4cccn4)cc3)c3ncccc3c-2nn1C1CCCOC1` (racemic) [Example 10, (±)-5-{[4-(1H-Pyrazol-1-yl)phenyl]methyl}-2-(tetrahydro-2H-pyran-3-yl)-2,5-dihydro-3H-pyrazolo[4,3-c]pyrido[3,2-e]pyridazin-3-one] the EC50 was 438 nM.
Work on `Cc1ccc(-c2ccc(Cn3nc4c(=O)n(C5CCCOC5)nc-4c4cccnc43)cc2)cn1` (racemic) [Example 11, (±)-5-{[4-(6-Methylpyridin-3-yl)phenyl]methyl}-2-(tetrahydro-2H-pyran-3-yl)-2,5-dihydro-3H-pyrazolo[4,3-c]pyrido[3,2-e]pyridazin-3-one] yielded an EC50 of 370 nM.
In the case of `Cc1ccccc1-n1nc2c3sccc3n(Cc3ccc(-n4cccn4)cc3)nc-2c1=O` [Example 33, 2-(2-Methylphenyl)-5-{[4-(1H-pyrazol-1-yl)phenyl]methyl}-2,5-dihydro-3H-pyrazolo[4,3-c]thieno[2,3-e]pyridazin-3-one], the EC50 is reported as 48 nM.
`Cc1cccc(-n2nc3c4cccnc4n(Cc4ccc(-c5cnn(C)c5)nc4)nc-3c2=O)c1C` [Example 1, 2-(2,3-Dimethylphenyl)-5-{[6-(1-methyl-1H-pyrazol-4-yl)pyridin-3-yl]methyl}-2,5-dihydro-3H-pyrazolo[4,3-c]pyrido[3,2-e]pyridazin-3-one] showed an EC50 of 58 nM.
`Cc1ccc(-c2ccc(Cn3nc4c(=O)n(C5CCCOC5)nc-4c4sccc43)cc2)cn1` (racemic) [Example 38, (±)-5-{[4-(6-Methylpyridin-3-yl)phenyl]methyl}-2-(tetrahydro-2H-pyran-3-yl)-2,5-dihydro-3H-pyrazolo[4,3-c]thieno[2,3-e]pyridazin-3-one] showed an EC50 of 183 nM.
With `Cc1cncc(-c2ccc(Cn3nc4c(=O)n(C5CCCOC5)nc-4c4cccnc43)cc2)c1` (stereo not shown) [Example 13] the EC50 was 578 nM.
`Cc1c(-n2nc3c4sccc4n(Cc4ccc(-n5cccn5)cc4)nc-3c2=O)ccnc1F` [Example 34] showed an EC50 of 33 nM.
With `Cc1ccc(-c2ccc(Cn3nc4c(=O)n([C@@H]5CCCC[C@H]5O)nc-4c4cccnc43)cn2)cn1` (racemic) [Example 8, (±)-2-(trans-2-Hydroxycyclohexyl)-5-[(6′-methyl-2,3′-bipyridin-5-yl)methyl]-2,5-dihydro-3H-pyrazolo[4,3-c]pyrido[3,2-e]pyridazin-3-one] the EC50 was 140 nM.
In the case of `O=c1c2nn(Cc3ccc(-c4cscn4)cc3)c3ncccc3c-2nn1C1CCCOC1` (racemic) [Example 31, (±)-2-(Tetrahydro-2H-pyran-3-yl)-5-{[4-(1,3-thiazol-4-yl)phenyl]methyl}-2,5-dihydro-3H-pyrazolo[4,3-c]pyrido[3,2-e]pyridazin-3-one], the EC50 is reported as 295 nM.
With `Cc1cc(-c2ccc(Cn3nc4c(=O)n(C5CCCOC5)nc-4c4sccc43)cc2)ccn1` (racemic) [Example 39, (±)-5-{[4-(2-Methylpyridin-4-yl)phenyl]methyl}-2-(tetrahydro-2H-pyran-3-yl)-2,5-dihydro-3H-pyrazolo[4,3-c]thieno[2,3-e]pyridazin-3-one] the EC50 was 120 nM.
`Cc1ccc(-c2ccc(Cn3nc4c(=O)n(-c5cccc(C)c5F)nc-4c4cccnc43)cn2)cn1` [Example 6, 2-(2-Fluoro-3-methylphenyl)-5-[(6′-methyl-2,3′-bipyridin-5-yl)methyl]-2,5-dihydro-3H-pyrazolo[4,3-c]pyrido[3,2-e]pyridazin-3-one] showed an EC50 of 36 nM.
`Cc1cccc(-n2nc3c4cccnc4n(Cc4ccc(Cl)nc4)nc-3c2=O)c1C` [Example 4, 5-[(6-Chloropyridin-3-yl)methyl]-2-(2,3-dimethylphenyl)-2,5-dihydro-3H-pyrazolo[4,3-c]pyrido[3,2-e]pyridazin-3-one] gave an EC50 of 366 nM.
With `O=c1c2nn(Cc3ccc(-c4ccc(O)nc4)cc3)c3ncccc3c-2nn1C1CCCOC1` (racemic) [Example 32, (±)-5-{[4-(6-Hydroxypyridin-3-yl)phenyl]methyl}-2-(tetrahydro-2H-pyran-3-yl)-2,5-dihydro-3H-pyrazolo[4,3-c]pyrido[3,2-e]pyridazin-3-one] the EC50 was 1690 nM.
For `Cc1ccc(-c2ccc(Cn3nc4c(=O)n(-c5cccc(C)c5C)nc-4c4cccnc43)cn2)cn1` [Example 5, 2-(2,3-Dimethylphenyl)-5-[(6′-methyl-2,3′-bipyridin-5-yl)methyl]-2,5-dihydro-3H-pyrazolo[4,3-c]pyrido[3,2-e]pyridazin-3-one], the EC50 was 109 nM.
`Cc1ccc(-c2ccc(Cn3nc4c(=O)n(C5CCCOC5)nc-4c4cccnc43)cn2)cn1` (racemic) [Example 9, (±)-5-[(6′-Methyl-2,3′-bipyridin-5-yl)methyl]-2-(tetrahydro-2H-pyran-3-yl)-2,5-dihydro-3H-pyrazolo[4,3-c]pyrido[3,2-e]pyridazin-3-one] gave an EC50 of 1160 nM.
`O=c1c2nn(Cc3ccc(-n4cccn4)cc3)c3ccsc3c-2nn1C1CCCOC1` (racemic) [Example 37, (±)-5-{[4-(1H-Pyrazol-1-yl)phenyl]methyl}-2-(tetrahydro-2H-pyran-3-yl)-2,5-dihydro-3H-pyrazolo[4,3-c]thieno[2,3-e]pyridazin-3-one] gave an EC50 of 96 nM.
